{"source": "paper PMC2663715", "about": "“Snapshots of Catalysis in the E1 Subunit of the Pyruvate Dehydrogenase Multienzyme Complex” (Structure(London, England:1993), 2008)", "key": {"[1]": {"target": "T1, E1p/E2p-PSBD complex (pyruvate dehydrogenase E1 subunit with E2p peripheral subunit binding domain) (Geobacillus stearothermophilus, UniProt P21873+P21874)", "T1 construct": "gene pdhA; alpha2beta2 heterotetramer with one E2p PSBD; recombinant in E. coli TG1 recO (plasmids pKBstE1a, pKBstE1b); he-3-deazaThDP crystals grown with E2p di-domain (lipoyl domain-linker-PSBD); with Dihydrolipoyllysine-residue acetyltransferase component of pyruvate dehydrogenase complex", "test": "X-ray crystal structure, […] A"}, "[2]": {"target": "T2, E1p/E2p-PSBD complex (pyruvate dehydrogenase E1 subunit with E2p peripheral subunit binding domain) (Geobacillus stearothermophilus, UniProt P21873+P21874, P21873:I207A)", "T2 construct": "gene pdhA; alpha2beta2 heterotetramer with one E2p PSBD; recombinant in E. coli TG1 recO (plasmids pKBstE1a, pKBstE1b); he-3-deazaThDP crystals grown with E2p di-domain (lipoyl domain-linker-PSBD); with Dihydrolipoyllysine-residue acetyltransferase component of pyruvate dehydrogenase complex", "test": "X-ray crystal structure, […] A", "conditions": "5 mM 3-deazaThDP; crystals at pH 5.0; ThDP site"}}, "data": [{"smiles": "Cc1ncc(Cc2csc(CCOP(=O)(O)OP(=O)(O)O)c2C)c(N)n1", "note": "[3-deazaThDP]", "values": [{"measurement": "X-ray crystal structure, 2.3 A", "setting": "[1]; Mg2+, pyruvate soaked in, ThDP site", "result": "we have solved the structure of the E1p/E2p-PSBD complex with bound 3-deazaThDP and pyruvate"}, {"measurement": "X-ray crystal structure, 2.35 A", "setting": "[2]", "result": "crystal structure of the complex of 3-deazaThDP with the G. stearothermophilus E1p I206Aα mutant"}]}, {"smiles": "CC(=O)C(=O)O", "note": "[pyruvate]", "values": [{"measurement": "X-ray crystal structure, 2.3 A", "setting": "[1]; 10 mM pyruvate soak 1 week into 3-deazaThDP crystals, density in two of four sites, orientation not definitive", "result": "density in the active-site pocket that is likely to be due to pyruvate binding"}]}]}
